Legend:
[1] = Partition coefficient, log P of the compound; format: physicochemical; conditions: octanol/water
Bacillus subtilis [2] = assay: Antibacterial activity against Bacillus subtilis at 500 ug/0.1 mL after 24 hr by agar diffusion method; format: functional
Staphylococcus aureus [3] = assay: Antibacterial activity against Staphylococcus aureus at 500 ug/0.1 mL after 24 hr by agar diffusion method; format: functional
Escherichia coli [4] = assay: Antibacterial activity against Escherichia coli at 500 ug/0.1 mL after 24 hr by agar diffusion method; format: functional
Pseudomonas aeruginosa [5] = assay: Antibacterial activity against Pseudomonas aeruginosa at 500 ug/0.1 mL after 24 hr by agar diffusion method; format: functional
Bacillus subtilis [6] = assay: Antibacterial activity against Bacillus subtilis at 10 ug/0.1 mL after 24 hr by agar diffusion method; format: functional
Staphylococcus aureus [7] = assay: Antibacterial activity against Staphylococcus aureus at 10 ug/0.1 mL after 24 hr by agar diffusion method; format: functional
Escherichia coli [8] = assay: Antibacterial activity against Escherichia coli at 10 ug/0.1 mL after 24 hr by agar diffusion method; format: functional
Pseudomonas aeruginosa [9] = assay: Antibacterial activity against Pseudomonas aeruginosa at 10 ug/0.1 mL after 24 hr by agar diffusion method; format: functional

logP [1] | SMILES | inhibition zone (IZ) (Bacillus subtilis [2]) [mm] | inhibition zone (IZ) (Staphylococcus aureus [3]) [mm] | inhibition zone (IZ) (Escherichia coli [4]) [mm] | also measured
0.995 | CC(=O)Nc1ccc2c(C)cc(=O)[nH]c2c1 | 13 | 11 |  | 
1.83 | Cc1cc(=O)[nH]c2cc(NC(=O)c3ccc(Cl)cc3Cl)ccc12 |  |  | 9 | 
1.61 | Cc1cc(=O)[nH]c2cc(NC(=O)c3ccc(F)cc3)ccc12 | 12 | 11 |  | 
1.75 | Cc1cc(=O)[nH]c2cc(NC(=O)c3c(Br)cccc3Br)ccc12 | 12 | 12 |  | 
1.63 | Cc1cc(=O)[nH]c2cc(NC(=O)c3ccc([N+](=O)[O-])cc3)ccc12 |  |  | 11 | inhibition zone (IZ) (Pseudomonas aeruginosa [5]): 9 mm
1.82 | Cc1cc(=O)[nH]c2cc(NC(=O)c3c([N+](=O)[O-])cccc3[N+](=O)[O-])ccc12 | 12.5 |  | 13 | inhibition zone (IZ) (Pseudomonas aeruginosa [5]): 10 mm
1.71 | Cc1ccccc1C(=O)Nc1ccc2c(C)cc(=O)[nH]c2c1 | 12 | 10 |  | 
1.67 | Cc1ccc(C(=O)Nc2ccc3c(C)cc(=O)[nH]c3c2)cc1 |  |  | 13 | inhibition zone (IZ) (Pseudomonas aeruginosa [5]): 10 mm
1.46 | COc1ccc(C(=O)Nc2ccc3c(C)cc(=O)[nH]c3c2)cc1OC | 13 | 16 | 15 | 
1.72 | Cc1cc(=O)[nH]c2cc(NC(=O)c3cccc4ccccc34)ccc12 | 13 |  | 11 | 
1.69 | Cc1cc(=O)[nH]c2cc(NC(=O)/C=C/c3ccccc3)ccc12 | 11 |  | 12 | 
1.66 | Cc1cc(=O)[nH]c2cc(NC(=O)c3ccccc3)ccc12 | 12 |  |  | inhibition zone (IZ) (Pseudomonas aeruginosa [5]): 11 mm
1.55 | Cc1cc(=O)[nH]c2cc(NC(=O)c3ccccc3Cl)ccc12 | 10.5 |  |  | 
1.69 | Cc1cc(=O)[nH]c2cc(NC(=O)c3cccc(Cl)c3)ccc12 |  |  |  | 
1.69 | Cc1cc(=O)[nH]c2cc(NC(=O)c3ccc(Cl)cc3)ccc12 |  |  | 9 | 
0.793 | Cc1cc(O)nc2cc(N)ccc12 | 10 | 11 | 10 | inhibition zone (IZ) (Pseudomonas aeruginosa [5]): 11 mm
 | CC1(C)S[C@@H]2[C@H](NC(=O)[C@H](N)c3ccc(O)cc3)C(=O)N2[C@H]1C(=O)O [AMOXICILLIN] |  |  |  | inhibition zone (IZ) (Bacillus subtilis [6]): 34 mm; inhibition zone (IZ) (Staphylococcus aureus [7]): 30 mm; inhibition zone (IZ) (Escherichia coli [8]): 23 mm; inhibition zone (IZ) (Pseudomonas aeruginosa [9]): 26 mm
